# Experimental data as given in patent publication US10124035B2, “DISC-1 pathway activators in the control of neurogenesis” (Massachusetts Institute of Technology, priority 2008, dated 2018).
# “Also recorded” adds a separate entry of the source.
# System: TCF reporter in 293T cells
# Test: TCF reporter activity in DISC1 knockdown 293T cells with Wnt3a conditional medium
# Type: cell-based
# Settings: 16 hours
# Protocol: Primary neural stem cells from E14 brains were infected with control or DISC1 shRNA lentiviruses. 48 hours after to transduction, cells were treated with vehicle or SB-216763 (5 μM) for 16 hours and then pulsed with 10 μM BrdU for 2 hours. Shown is percentage of GFP and BrdU double positive cells to total GFP positive cells (n=3, p<0.05). b. […] 1.5 μg of vector or WT-DISC1 was cotransfected with 0.5 μg control or DISC1 shRNA-2, 0.1 μg TCF reporter, and 10 ng pRL-TK vector into 293T cells. 48 hours after transfection, Wnt3a conditional medium with vehicle, SB-216763, or AR-A104418 was added for another 16 hours.
# • Mice. Swiss Webster pregnant female mice were purchased from Taconic (Hudson, N.Y.). • Cell Culture. AHPs were kindly provided by Dr. Gage (Lie, D. C. et al. Wnt signaling to regulates adult hippocampal neurogenesis. Nature 437, 1370-5 (2005)) and cultured under conditions described previously (Palmer, T. D., Takahashi, J. & Gage, F. H. The adult rat hippocampus contains primordial neural stem cells. Mol Cell Neurosci 8, 389-404 (1997)). Primary neural progenitors were isolated from E14 mouse embryos and cultured as described previously (Sanada, K. & Tsai, L. H. G protein betagamma subunits and AGS3 control spindle orientation and asymmetric cell fate of cerebral cortical progenitors. Cell 122, 119-31 (2005)). N2a and 293T cells were cultured in DMEM medium containing 10% FBS, L-glutamine, and penicillin/streptomycin. Wnt3a expressing L cells and untransfected L cells were obtained from ATCC (Manassas, Va.). Wnt3a conditional medium was produced according to the ATCC protocol. To induce AHP differentiation, FGF2 was removed from the culture medium and 1 μM retinoic acid/1% FBS was added to the medium for 4 days. • Reagents. Recombinant Wnt3a protein was obtained from Chemicon (Rosemont, Ill.). FGF2 was obtained from PeproTech (Rocky Hill, N.J.). Recombinant GST-GSK3β was obtained from Active Motif (Carlsbad, Calif.). Recombinant GST-β-catenin and GST-axin were obtained from Millipore (Billerica, Mass.). […]
compound,measurement,value
Cn1cc(C2=C(c3ccc(Cl)cc3Cl)C(=O)NC2=O)c2ccccc21 [SB-216763],TCF reporter activity in DISC1 knockdown cells,rescued TCF activity in DISC1 knockdown cells to control levels; also recorded: rescues the TCF activation defect caused by DISC1 knockdown
